# Legend:
# [1] = Blood levels in humans, oral administration of Test Compound for 7 days (toxicology studies); format: in vivo, human; settings: for Cmax at 7 days: blood; for Cmax at 7 days / AUC (0-24): human
# Text: In toxicology studies in humans, oral administration of Test Compound at various doses for 7 days produced the following C max's and AUC (0-24): […]
# [2] = Example 3 study 2: repeated oral dose (q12h, 1 wk) pharmacokinetics in healthy men; format: in vivo, human
# Description: (§1) Two single-center, placebo-controlled, double-blind, ascending-dose studies were conducted in healthy men ≧18 and ≦45 yrs. In study 1 (N=70), subjects were randomly assigned to a single dose of Test Compound (TC) or placebo. Escalated doses were received as 100, 250, 400, 750, 1000, 1250, and 1500 mg. PK parameters were estimated from plasma and urine samples collected up to 3 days post dose. Study 2 (N=53) evaluated the PK of repeated doses of Test Compound (TC) in 4 dose groups (100, 250, 500, or 750 mg). Within each group, 12 subjects were assigned to q12h treatment with drug or placebo for 1 wk and were crossed over after a 14-day washout period. PK parameters were estimated from plasma and urine samples on days 1 and 7.
# [3] = Example 3 study 1: single oral dose pharmacokinetics in healthy men; format: in vivo, human
# Description: as §1
# [4] = test system: rats subjected to li-pilo SE; test: Example 2: latency to and frequency of spontaneous seizures (video recording); format: in vivo, rat
# Description: The effects of DZP and the 4 doses of TC on epileptogenesis were investigated by daily video recording of the animals for 10 h per day. Video recording was performed for 4 weeks during which the occurrence of the first seizure was noted as well as the total number of seizures over the whole period. Animals were then taken off the video recording system and kept for 4 additional weeks in our animal facilities before they were sacrificed after a total period of 8 weeks of epilepsy.
# [5] = test system: rats subjected to li-pilo SE; test: Example 2: quantification of cell densities 14 days after li-pilo SE;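 further: Thionine-stained 20 µm brain sections, neurons with cell bodies above 10 µm counted, value is the mean of 12 fields per structure from three adjacent sections, both sides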
# Description: All rats received lithium chloride (3 meq/kg, i.p., Sigma, St Louis, Mo., U.S.A.) and about 20 h later, all animals received also methylscopolamine bromide (1 mg/kg, s.c., Sigma) that was administered to limit the peripheral effects of the convulsant. […] The effects of increasing doses of TC were studied in 5 groups of rats. […] The control group received vehicle instead of pilocarpine and TC.
# For neuronal counting, animals were deeply anesthetized with 1.8 g/kg pentobarbital (Dolethal®, Vetoquinol, Lure, France). Brains were then removed and frozen. Serial 20 μm slices were cut in a cryostat, air-dried during several days before thionine staining. […] The grid of counting was placed on a well defined area of the cerebral structure of interest and counting was carried out with a microscopic enlargement of 200- or 400-fold defined for each single cerebral structure. Cell counts were performed twice on each side of three adjacent sections for each region by a single observer unaware of the animal's treatment. The number of cells obtained in the 12 counted fields in each cerebral structure was averaged. This procedure was used to minimize the potential errors that could result from double counting leading to overestimation of cell numbers. […] Counts involved only neurons with cell bodies larger than 10 μm. Cells with small cell bodies were considered as glial cells and were not counted.
# For neuronal damage and epileptogenesis, statistical analysis between groups was performed by means of a one-way analysis of variance followed by a post-hoc Dunnett or Fisher test using the Statistica software.
# [6] = repeated doses q12h, 100-750 mg
# [7] = pilo-TC30 (TC 30 mg/kg), 14 days after li-pilo SE
smiles,measurement,setting,value
NC(=O)OC[C@@H](O)c1ccccc1Cl [TC],tolerability in humans,[1]; 750 mg twice a day (1500 mg/day),easily tolerated
same,Cmax at 7 days,[1]; oral 100 mg b.i.d. for 7 days,3600 ng/mL
same,Cmax at 7 days,[1]; oral 250 mg b.i.d. for 7 days,8200 ng/mL
same,Cmax at 7 days,[1]; oral 500 mg b.i.d. for 7 days,17200 ng/mL
same,Cmax at 7 days,[1]; oral 750 mg b.i.d. for 7 days,28200 ng/mL
same,AUC (0-24),[1]; oral 100 mg b.i.d. for 7 days,42.2 micrograms-hour/mL
same,AUC (0-24),[1]; oral 250 mg b.i.d. for 7 days,102.3 micrograms-hour/mL
same,AUC (0-24),[1]; oral 500 mg b.i.d. for 7 days,204.1 micrograms-hour/mL
same,AUC (0-24),[1]; oral 750 mg b.i.d. for 7 days,322.7 micrograms-hour/mL
same,Mean CLR relative to mean oral clearance,[2]; healthy men,< 5 % of the mean oral clearance
same,Tmax at 1 wk,"[2]; male, human, plasma, oral, repeated doses q12h, 100-750 mg",1.3 to 1.8 h
same,half-life at 1 wk,"[2]; male, human, plasma, oral, repeated doses q12h, 100-750 mg, read-out: mean t1/2 at steady state",11.9 to 12.8 h
same,accumulation: Cmax and AUC0-12 on day 7 vs. day 1,"[2]; q12h administration, listed as Test Compound",about two-fold
same,Steady-state Cmax and AUC0-12 dose dependence,[2]; repeated doses 100-750 mg,increased in proportion to the dose
same,mean CL/F at steady state,[2]; [6],3.40 to 3.78 L/h
same,time for plasma concentrations to reach steady state,[2]; [6],3 to 4 days
same,linearity of PK,"[2]; single (100-1500 mg) and repeated (100-750 mg bid) doses, healthy adult men",linear
same,Tmax,"[3]; male, human, plasma, single oral dose 100-1500 mg, healthy men",1.3 to 2.7 h
same,half-life,"[3]; male, human, plasma, single oral dose 100-1500 mg, healthy men, read-out: Mean t1/2",11.5 to 13.9 h
same,Cmax and AUC0-∞ dose dependence,[3]; single dose over the range of 100-1500 mg,increased in proportion to dose
same,Mean CL/F,"[3]; single oral dose 100-1500 mg, healthy men",2.87 to 3.67 L/h
same,absorption following oral administration,"[3]; single oral dose, healthy men",rapidly absorbed
same,effect on the latency to the first spontaneous seizure,[4]; 30 mg/kg,did not affect the latency to the first spontaneous seizure
same,latency of long latency subgroup relative to short latency,"[4]; 3 higher doses (60, 90, 120 mg/kg)",4-6 times longer
same,frequency of spontaneous seizures over four weeks of recording,"[4]; TC60, 90 and 120 groups vs DZP and TC30 groups",lower
same,percentage of rats with short latencies to seizures,"[4]; at 30 mg/kg (so in the source), short latency = shorter than 40 days after SE",70%
same,percentage of rats with short latencies to seizures,[4]; at 90 mg/kg,36%
same,percentage of rats with short latencies to seizures,[4]; at 120 mg/kg,11%
same,percentage of non-epileptic rats (no seizure over 150 days post-SE),"[4]; at both highest doses, 90 and 120 mg/kg",45%
same,Latency to the first spontaneous seizure,"[4]; pilo-TC30, 30 mg/kg",11.6 ± 2.5 days
same,Latency to the first spontaneous seizure,"[4]; pilo-TC60, Long latency subgroup",76.7 ± 15.6**°° days
same,Latency to the first spontaneous seizure,"[4]; pilo-TC60, Short latency subgroup",17.4 ± 5.4 days
same,Latency to the first spontaneous seizure,"[4]; pilo-TC90, Long latency subgroup",52.0 ± 1.0*° days
same,Latency to the first spontaneous seizure,"[4]; pilo-TC90, Non epileptic subgroup (no seizure over 150 days post-SE)",150**°° days
same,Latency to the first spontaneous seizure,"[4]; pilo-TC90, Short latency subgroup",14.8 ± 5.7 days
same,Latency to the first spontaneous seizure,"[4]; pilo-TC120, Long latency subgroup",84.5 ± 16.7**°° days
same,Latency to the first spontaneous seizure,"[4]; pilo-TC120, Non epileptic subgroup (no seizure over 150 days post-SE)",150**°° days
same,Latency to the first spontaneous seizure,"[4]; pilo-TC120, Short latency subgroup",13.0 days
same,protective effects at lowest dose tested in Example 2,[5]; 30 mg/kg,some measurable protective effects
same,"neuronal drop out, layer II of the dorsal piriform cortex","[5]; TC 60 mg/kg, 14 days after SE",25%
same,"damage remaining, ventral entorhinal cortex layer II","[5]; TC 90 mg/kg, 14 days after SE",4%
same,"damage remaining, ventral entorhinal cortex layers III/IV","[5]; TC 90 mg/kg, 14 days after SE",17%
same,"neuronal density in piriform cortex, % of control levels","[5]; TC 120 mg/kg, 14 days after SE",78-96 % of control levels
same,"neurons surviving in entorhinal cortex, dorsal and ventral","[5]; TC 120 mg/kg, 14 days after SE",85-94%
same,cell loss (drop out) in the hilus of dentate gyrus,"[5]; TC30, 60 and 90 groups (range also covers DZP), 14 days after SE",61-66%
same,"cell loss, CA1 pyramidal cell layer","[5]; TC30, 60 or 90 rats, 14 days after SE",36-47%
same,"cell loss, CA1 pyramidal cell layer","[5]; TC120 group, 14 days after SE",12%
same,neuronal loss in the hilus of dentate gyrus,"[5]; TC120 group, 14 days after SE",53%
same,neuronal drop out in thalamic nuclei,"[5]; TC120 rats, 14 days after SE",4-19%
same,"number of neurons in all amygdala nuclei, % of the control level","[5]; highest dose, 120 mg/kg, 14 days after SE",86-99 % of the control level
same,number of neuronal cell bodies: Amygdala Basolateral,[5]; [7],27.3 ± 4.9**°
same,"number of neuronal cell bodies: Amygdala Medial, dorsal anterior",[5]; [7],46.8 ± 5.0
same,"number of neuronal cell bodies: Amygdala Medial, ventral posterior",[5]; [7],22.3 ± 1.8
same,"number of neuronal cell bodies: Cerebral cortex Entorhinal, layer II, dorsal",[5]; [7],23.4 ± 0.6
same,"number of neuronal cell bodies: Cerebral cortex Entorhinal, layer II, ventral",[5]; [7],22.7 ± 0.9
same,"number of neuronal cell bodies: Cerebral cortex Entorhinal, layer III/IV, dorsal",[5]; [7],22.3 ± 0.5
same,"number of neuronal cell bodies: Cerebral cortex Entorhinal, layer III/IV, ventral",[5]; [7],13.2 ± 1.9
same,"number of neuronal cell bodies: Cerebral cortex Piriform, layer II, dorsal",[5]; [7],15.7 ± 2.9
same,"number of neuronal cell bodies: Cerebral cortex Piriform, layer II, ventral",[5]; [7],7.2 ± 3.8
same,"number of neuronal cell bodies: Cerebral cortex Piriform, layer III",[5]; [7],1.8 ± 1.8
same,number of neuronal cell bodies: Hippocampus CA1 area,[5]; [7],39.3 ± 44**°°
same,number of neuronal cell bodies: Hippocampus CA3 area,[5]; [7],35.7 ± 1.8
same,number of neuronal cell bodies: Hippocampus Hilus,[5]; [7],33.0 ± 3.2
